From patent publication US8859543B2, “Imidazo[1,2-a]pyrazine derivatives and their use for the prevention or treatment of neurological, psychiatric and metabolic disorders and diseases” (Janssen Pharmaceutica NV, priority 2010, dated 2014)
Read-outs that look alike come from different tables or passages of the source.

Assays:
[1] = test system: scopolamine induced memory deficit; experiment: Object recognition test (scopolamine induced memory deficit); type: in vivo, rat; conditions: rats
Protocol: They were kept under a 12/12-hour light/dark cycle (lights on from 19.00 to 7.00 h) and had free access to food and water. […] A radio, which was playing softly, provided background noise in the room. […] The apparatus consisted of a circular arena, 83 cm in diameter. […] The light intensity was equal in the different parts of the apparatus, as fluorescent red tubes provided a constant illumination of about 20 lux on the floor of the apparatus. […] Each object was available in triplicate. Four different sets of objects were used. A testing session consisted of two trials. […] During the first trial (T1) the apparatus contained two identical objects (samples). Rats were placed in the apparatus facing the wall at the middle of the front (transparent) segment. After the first exploration period the rat was put back in its home cage. […] Exploration was defined as follows: directing the nose to the object at a distance of no more than 2 cm and/or touching the object with the nose. Sitting on the object was not considered as exploratory behavior.

[2] = test system: conditioned avoidance response; experiment: Conditioned avoidance response (CAR) test; type: in vivo; conditions: Rattus norvegicus
Source text: Conditioned Avoidance Response (CAR) Test
The apparatus consisted of an inner box surrounded by an outer box. The inner box was composed of four walls of transparent, synthetic material (length×width×height: 30×30×30 cm), an open top, and a grid floor made of 15 pairs of iron bars (2 mm diameter; 6 mm inter-bar distance). Odd and even bars were connected with a source of alternative current (1.0 mA; Coulbourn Instruments Solid State Shocker/Distributor), which could be interrupted by a switch. The outer box was composed of the same material (length×width×height: 40×40×36 cm), also with an open top, with a distance of 5 cm between the inner and outer box on all sides. To decrease the amount of environmental stimuli, three walls of the outer box were made non-transparent. The front wall was left transparent to allow the necessary inspection of the animal during the test. The upper edge of the outer and inner box served as a target for the rats on which to jump with fore- and hind-paws, respectively.
From their arrival in the laboratory on the experimental day, male Wiga Wistar rats (230±30 g) were housed in individual cages provided with bedding material.
The rats were tested 3 times, i.e. at 60, 90 and 120 min after the injection of test compound or solvent. Latency to avoidance was recorded. The median avoidance response obtained over the three experimental sessions for each rat were used for further calculations.

[3] = test system: apomorphine-induced stereotypy; experiment: Apomorphine-induced stereotypy in rats (APO); type: in vivo; conditions: Rattus norvegicus
Protocol: Apomorphine-Induced Stereotypy in Rats (APO)
Apomorphine (1.0 mg/kg, i.v.)-induced stereotypy (compulsive sniffing, licking, chewing) was scored every 5 min. over the first hour after injection of apomorphine, following a 1 hour interval pre-treatment with the test compound. The score system was: (3) pronounced, (2) moderate, (1) slight, and (O) absent.

[4] = test system: PCP-induced hyperlocomotion; experiment: PCP-induced hyperlocomotion in rats (PCP); type: in vivo; conditions: Rattus norvegicus
[5] = target: T1, Rat recombinant PDE10A (rPDE10A2) (Rattus norvegicus, UniProt Q9QYJ6); experiment: In vitro assay PDE10A (SPA, 3H-cAMP); type: biochemical
T1 construct: made in house; host or cells: Sf9 insect cells, baculovirus
T1 sequence (Q9QYJ6 1-794): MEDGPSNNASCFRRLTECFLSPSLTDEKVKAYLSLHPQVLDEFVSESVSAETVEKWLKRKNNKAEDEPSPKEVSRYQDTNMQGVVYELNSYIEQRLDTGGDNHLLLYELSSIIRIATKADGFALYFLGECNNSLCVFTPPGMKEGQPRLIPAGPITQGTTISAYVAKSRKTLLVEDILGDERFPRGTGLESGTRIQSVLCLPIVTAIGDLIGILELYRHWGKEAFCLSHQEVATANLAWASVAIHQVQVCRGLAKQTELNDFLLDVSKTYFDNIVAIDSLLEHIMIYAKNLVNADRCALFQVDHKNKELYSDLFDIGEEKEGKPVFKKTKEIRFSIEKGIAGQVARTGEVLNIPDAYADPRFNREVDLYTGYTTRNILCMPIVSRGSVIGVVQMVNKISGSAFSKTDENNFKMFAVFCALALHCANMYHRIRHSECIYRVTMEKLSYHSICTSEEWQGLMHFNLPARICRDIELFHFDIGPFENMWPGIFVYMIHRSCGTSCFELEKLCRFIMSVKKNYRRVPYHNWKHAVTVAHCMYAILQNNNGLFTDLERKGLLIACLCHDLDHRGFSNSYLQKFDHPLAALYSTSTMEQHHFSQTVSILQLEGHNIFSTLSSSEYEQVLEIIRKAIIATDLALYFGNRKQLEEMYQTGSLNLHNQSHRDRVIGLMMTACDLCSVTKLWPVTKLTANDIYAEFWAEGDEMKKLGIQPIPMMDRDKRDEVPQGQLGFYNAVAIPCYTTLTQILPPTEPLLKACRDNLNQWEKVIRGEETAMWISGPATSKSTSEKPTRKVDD
In short: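 Purified Sf9-expressed rat PDE10A2 incubated 60 min at RT with 60 nM cAMP plus 0.008 μCi 3H-cAMP in 50 mM Tris pH 7.8, 8.3 mM MgCl2, 1.7 mM EGTA, 1% DMSO final. Product quantified by scintillation proximity counting against no-enzyme blanks and DMSO controls.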

PDE10 = target: T2, PDE10 (Rattus norvegicus, UniProt Q9QYJ6); experiment: PDE10 occupancy ([3H]-MP-10, striatum); type: in vivo; conditions: administered s.c.; for ED50: rat, sc, occupancy, read-out: Occ. ED50
T2 construct: from tissue; host or cells: rat brain sections, striatum (ex vivo autoradiography after in vivo dosing)
T2 sequence (Q9QYJ6 1-794): T1 sequence (Q9QYJ6 1-794)
Protocol: Dose-response or single dose experiments were performed to measure PDE10 occupancy 1 hour after subcutaneous (s.c.) or oral (p.o.) administration. Male Wistar rats (200 g) were treated by s.c. or p.o. administration of various PDE10 inhibitors. The PDE10 radioligand [^3H]-MP-10 (10 μCi/animal) was injected intravenously (i.v.) 30 minutes before sacrifice. Brains were immediately removed from the skull and rapidly frozen. Twenty μm-thick brain sections were cut using a cryostat-microtome, thaw-mounted on microscope slides and loaded in a β-imager to quantify PDE10 occupancy in the striatum.

PDE11A = PDE11A (Homo sapiens, UniProt Q9HCR9); experiment: In vitro PDE selectivity assay, PDE11A; type: biochemical; conditions: Table 4a in vitro selectivity; read-out: IC50 PDE type 11A
Protocol: (§1) Rat recombinant PDE10A (rPDE10A2) was expressed in Sf9 cells using a recombinant rPDE10A baculovirus construct. Cells were harvested after 48 h of infection and the rPDE10A protein was purified by metal chelate chromatography on Ni-sepharose 6FF. […] The reaction was incubated for 60 min. at RT. […] After sedimentation of the beads during 30 min. the radioactivity was measured in a Perkin Elmer Topcount scintillation counter and results were expressed as cpm. For blank values the enzyme was omitted from the reaction and replaced by incubation buffer. […] The same assay principle is applied for the measurement of the affinity of the compound for other members of the PDE family with appropriate modifications in incubation buffer, substrate concentration, incubation time and stop solution.

PDE1B = PDE1B (Homo sapiens, UniProt Q01064); experiment: In vitro PDE selectivity assay, PDE1B; type: biochemical; conditions: Table 4a in vitro selectivity; read-out: IC50 PDE type 1B
Protocol: as §1

PDE4D = PDE4D (Homo sapiens, UniProt Q08499); experiment: In vitro PDE selectivity assay, PDE4D; type: biochemical; conditions: Table 4a in vitro selectivity; read-out: IC50 PDE type 4D
Protocol: as §1

PDE5A = PDE5A (Homo sapiens, UniProt O76074); experiment: In vitro PDE selectivity assay, PDE5A; type: biochemical; conditions: Table 4a in vitro selectivity; read-out: IC50 PDE type 5A
Protocol: as §1

PDE7A = PDE7A (Homo sapiens, UniProt Q13946); experiment: In vitro PDE selectivity assay, PDE7A; type: biochemical; conditions: Table 4a in vitro selectivity; read-out: IC50 PDE type 7A
Protocol: as §1

PDE9A = PDE9A (Homo sapiens, UniProt O76083); experiment: In vitro PDE selectivity assay, PDE9A; type: biochemical
Protocol: as §1

PDE2A = PDE2A (Homo sapiens, UniProt O00408); experiment: In vitro PDE selectivity assay, PDE2A; type: biochemical
Protocol: as §1

PDE3A = PDE3A (Homo sapiens, UniProt Q14432); experiment: In vitro PDE selectivity assay, PDE3A; type: biochemical; conditions: Table 4a in vitro selectivity; read-out: IC50 PDE type 3A
Protocol: as §1

[6] = pIC50 corresponds to the -log IC50 expressed in mol/L, read-out: PDE10A2 pIC50 (converted)
[7] = pIC50 corresponds to the -log IC50 expressed in mol/L

Chain of PDE9A (O76083 whole entry): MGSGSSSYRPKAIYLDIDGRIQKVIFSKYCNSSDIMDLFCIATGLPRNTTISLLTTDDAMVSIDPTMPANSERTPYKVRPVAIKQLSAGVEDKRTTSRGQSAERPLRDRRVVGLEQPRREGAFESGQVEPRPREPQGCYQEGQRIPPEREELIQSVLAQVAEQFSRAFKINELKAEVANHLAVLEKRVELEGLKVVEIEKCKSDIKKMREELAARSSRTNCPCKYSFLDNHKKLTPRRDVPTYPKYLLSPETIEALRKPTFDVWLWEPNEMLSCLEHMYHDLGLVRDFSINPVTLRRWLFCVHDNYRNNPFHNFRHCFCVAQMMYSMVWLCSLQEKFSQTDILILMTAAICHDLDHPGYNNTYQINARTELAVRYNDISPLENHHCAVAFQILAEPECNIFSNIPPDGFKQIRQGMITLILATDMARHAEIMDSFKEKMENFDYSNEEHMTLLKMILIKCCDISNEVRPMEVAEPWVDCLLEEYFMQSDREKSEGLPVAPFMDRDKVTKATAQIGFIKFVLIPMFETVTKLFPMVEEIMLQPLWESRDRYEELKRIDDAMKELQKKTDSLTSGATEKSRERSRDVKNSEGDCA
Chain of PDE2A (O00408 whole entry, species assumed): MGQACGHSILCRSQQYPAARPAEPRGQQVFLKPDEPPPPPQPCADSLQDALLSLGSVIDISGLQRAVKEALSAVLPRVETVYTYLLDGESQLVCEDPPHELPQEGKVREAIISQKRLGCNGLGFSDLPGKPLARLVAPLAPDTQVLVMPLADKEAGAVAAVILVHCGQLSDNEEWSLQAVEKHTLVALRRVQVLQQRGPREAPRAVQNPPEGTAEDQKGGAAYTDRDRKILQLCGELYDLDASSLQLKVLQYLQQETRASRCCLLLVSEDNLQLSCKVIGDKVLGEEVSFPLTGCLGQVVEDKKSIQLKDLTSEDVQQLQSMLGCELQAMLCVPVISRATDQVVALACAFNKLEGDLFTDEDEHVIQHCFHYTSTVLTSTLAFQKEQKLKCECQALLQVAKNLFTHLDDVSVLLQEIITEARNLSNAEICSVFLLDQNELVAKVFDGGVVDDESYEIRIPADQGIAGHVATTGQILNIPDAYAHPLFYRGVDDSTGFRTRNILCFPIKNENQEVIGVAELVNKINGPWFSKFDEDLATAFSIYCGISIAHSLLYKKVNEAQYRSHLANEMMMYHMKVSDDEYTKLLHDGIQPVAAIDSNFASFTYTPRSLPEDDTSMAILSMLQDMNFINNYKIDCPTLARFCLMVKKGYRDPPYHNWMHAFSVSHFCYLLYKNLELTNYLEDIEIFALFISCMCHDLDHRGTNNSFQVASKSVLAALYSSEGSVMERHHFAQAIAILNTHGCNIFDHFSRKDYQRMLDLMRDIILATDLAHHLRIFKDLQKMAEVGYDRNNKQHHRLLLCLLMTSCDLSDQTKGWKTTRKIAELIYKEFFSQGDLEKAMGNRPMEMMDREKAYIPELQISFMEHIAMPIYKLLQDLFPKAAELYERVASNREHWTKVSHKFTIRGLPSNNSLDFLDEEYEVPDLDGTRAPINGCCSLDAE
Chain of PDE1B (Q01064 whole entry): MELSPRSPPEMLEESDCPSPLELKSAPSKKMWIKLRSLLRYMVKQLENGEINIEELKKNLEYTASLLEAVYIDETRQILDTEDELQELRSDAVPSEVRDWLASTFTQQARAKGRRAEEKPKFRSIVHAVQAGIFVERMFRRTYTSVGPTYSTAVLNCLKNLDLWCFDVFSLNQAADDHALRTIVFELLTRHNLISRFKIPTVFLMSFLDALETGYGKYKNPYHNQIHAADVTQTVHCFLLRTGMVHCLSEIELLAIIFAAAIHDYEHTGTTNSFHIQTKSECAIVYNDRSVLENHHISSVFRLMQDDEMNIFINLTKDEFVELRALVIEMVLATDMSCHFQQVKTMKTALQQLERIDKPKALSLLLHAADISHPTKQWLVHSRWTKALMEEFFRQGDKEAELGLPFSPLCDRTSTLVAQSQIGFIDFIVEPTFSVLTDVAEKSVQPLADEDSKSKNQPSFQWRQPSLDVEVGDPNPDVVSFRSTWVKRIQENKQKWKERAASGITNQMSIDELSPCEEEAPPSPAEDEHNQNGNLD
Chain of PDE4D (Q08499 whole entry, species assumed): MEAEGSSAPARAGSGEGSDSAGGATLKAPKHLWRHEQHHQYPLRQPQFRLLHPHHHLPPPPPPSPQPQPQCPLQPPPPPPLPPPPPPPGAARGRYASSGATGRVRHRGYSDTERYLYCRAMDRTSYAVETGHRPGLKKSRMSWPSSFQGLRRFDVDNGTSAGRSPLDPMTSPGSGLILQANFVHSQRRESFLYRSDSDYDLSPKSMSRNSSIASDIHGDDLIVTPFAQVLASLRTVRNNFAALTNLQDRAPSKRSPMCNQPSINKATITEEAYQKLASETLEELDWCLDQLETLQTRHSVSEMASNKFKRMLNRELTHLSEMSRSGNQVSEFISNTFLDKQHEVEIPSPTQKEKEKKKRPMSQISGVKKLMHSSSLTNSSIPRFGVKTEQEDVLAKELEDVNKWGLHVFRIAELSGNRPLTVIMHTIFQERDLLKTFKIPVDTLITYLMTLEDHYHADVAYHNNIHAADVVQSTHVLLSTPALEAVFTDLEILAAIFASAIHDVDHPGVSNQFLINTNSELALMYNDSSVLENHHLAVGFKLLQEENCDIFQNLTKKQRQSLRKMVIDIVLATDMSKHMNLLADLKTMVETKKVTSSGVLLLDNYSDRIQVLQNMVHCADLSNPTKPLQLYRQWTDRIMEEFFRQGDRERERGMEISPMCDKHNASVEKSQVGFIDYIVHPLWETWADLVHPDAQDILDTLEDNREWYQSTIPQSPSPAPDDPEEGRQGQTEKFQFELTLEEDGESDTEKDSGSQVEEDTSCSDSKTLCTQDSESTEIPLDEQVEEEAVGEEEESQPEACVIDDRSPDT
Chain of PDE11A (Q9HCR9 whole entry, species assumed): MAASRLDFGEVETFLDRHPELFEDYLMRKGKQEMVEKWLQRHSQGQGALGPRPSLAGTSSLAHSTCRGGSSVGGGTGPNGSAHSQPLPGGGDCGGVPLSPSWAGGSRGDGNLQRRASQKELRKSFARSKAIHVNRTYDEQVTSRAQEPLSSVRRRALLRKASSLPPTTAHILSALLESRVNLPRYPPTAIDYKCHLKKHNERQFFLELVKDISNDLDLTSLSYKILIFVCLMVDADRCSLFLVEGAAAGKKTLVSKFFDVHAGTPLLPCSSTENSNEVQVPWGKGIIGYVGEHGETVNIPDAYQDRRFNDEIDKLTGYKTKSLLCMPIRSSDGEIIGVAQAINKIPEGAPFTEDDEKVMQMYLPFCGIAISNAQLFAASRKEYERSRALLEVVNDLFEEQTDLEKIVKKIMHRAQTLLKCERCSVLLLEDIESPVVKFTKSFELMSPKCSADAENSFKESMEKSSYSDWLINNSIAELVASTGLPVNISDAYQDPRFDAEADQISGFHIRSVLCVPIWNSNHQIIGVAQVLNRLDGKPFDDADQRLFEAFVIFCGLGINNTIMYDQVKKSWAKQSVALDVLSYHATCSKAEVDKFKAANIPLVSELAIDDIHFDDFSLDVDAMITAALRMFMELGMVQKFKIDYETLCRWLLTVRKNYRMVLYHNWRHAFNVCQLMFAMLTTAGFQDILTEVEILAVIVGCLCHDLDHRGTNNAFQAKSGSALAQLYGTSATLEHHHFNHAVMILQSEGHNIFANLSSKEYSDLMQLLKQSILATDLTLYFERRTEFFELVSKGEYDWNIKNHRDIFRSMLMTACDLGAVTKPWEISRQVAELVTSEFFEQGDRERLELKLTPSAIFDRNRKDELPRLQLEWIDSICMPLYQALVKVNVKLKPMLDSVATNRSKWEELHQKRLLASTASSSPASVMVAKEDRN
Chain of PDE3A (Q14432 whole entry): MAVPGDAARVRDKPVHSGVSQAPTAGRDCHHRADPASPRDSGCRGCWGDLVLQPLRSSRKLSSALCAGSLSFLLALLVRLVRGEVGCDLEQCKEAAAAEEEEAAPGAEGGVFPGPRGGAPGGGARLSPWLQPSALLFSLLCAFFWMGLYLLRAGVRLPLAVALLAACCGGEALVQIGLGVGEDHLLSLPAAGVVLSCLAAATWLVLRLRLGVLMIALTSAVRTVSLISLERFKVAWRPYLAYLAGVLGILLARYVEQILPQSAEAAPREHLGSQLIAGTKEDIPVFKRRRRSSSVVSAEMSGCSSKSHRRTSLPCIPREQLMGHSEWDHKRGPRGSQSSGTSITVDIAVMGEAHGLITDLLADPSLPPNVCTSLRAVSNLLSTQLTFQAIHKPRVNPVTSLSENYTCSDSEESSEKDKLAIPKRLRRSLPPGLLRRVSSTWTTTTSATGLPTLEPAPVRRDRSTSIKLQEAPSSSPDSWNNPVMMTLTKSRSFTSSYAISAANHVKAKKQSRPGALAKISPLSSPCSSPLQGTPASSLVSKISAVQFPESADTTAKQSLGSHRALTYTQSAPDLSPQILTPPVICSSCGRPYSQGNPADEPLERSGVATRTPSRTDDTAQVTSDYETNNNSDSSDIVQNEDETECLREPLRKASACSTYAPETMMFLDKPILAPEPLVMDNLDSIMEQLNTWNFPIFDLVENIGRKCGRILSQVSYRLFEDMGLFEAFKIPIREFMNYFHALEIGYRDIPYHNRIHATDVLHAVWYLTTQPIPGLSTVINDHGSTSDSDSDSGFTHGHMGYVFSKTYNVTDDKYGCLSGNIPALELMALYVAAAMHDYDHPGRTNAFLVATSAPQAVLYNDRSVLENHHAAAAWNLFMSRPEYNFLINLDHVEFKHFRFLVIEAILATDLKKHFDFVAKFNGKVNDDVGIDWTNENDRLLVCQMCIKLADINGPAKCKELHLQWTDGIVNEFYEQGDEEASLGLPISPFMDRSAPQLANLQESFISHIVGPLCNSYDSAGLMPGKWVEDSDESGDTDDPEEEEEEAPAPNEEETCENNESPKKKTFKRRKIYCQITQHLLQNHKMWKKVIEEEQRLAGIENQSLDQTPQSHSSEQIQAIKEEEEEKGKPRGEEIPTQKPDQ

With COc1cc2ncnc(N3CC[C@@H](Oc4cnc5ccccc5n4)C3)c2cc1OC [PQ10, 6,7-dimethoxy-4-[3(R)-(quinoxalin-2-yloxy)pyrrolidin-1-yl]quinazoline] the “index of discrimination (d2), mean” value ([1]; 1 mg/kg p.o. + Scop. 0.1 mg/kg, 1 h delay) was 0.27 and the “discrimination compared to the vehicle/scopolamine condition (post-hoc analysis)” value ([1]; 1 mg/kg p.o. + scopolamine) was “significantly better discrimination”.

With COCCc1ccc(-c2c(C)nc3c(N4CCOCC4)nccn23)cn1 [compound 16, 3-[6-(2-Methoxy-ethyl)-pyridin-3-yl]-2-methyl-8-morpholin-4-yl-imidazo[1,2-a]pyrazine] the ED50 [2] was 2 mg/kg, the ED50 ([3]; read-out: APO ED50) was 1 mg/kg and the ED50 [4] was 1.54 mg/kg.

For COC(C)(C)Cn1cc(-c2c(C)nc3c(N4CCOCC4)nccn23)cn1 [compound 72], the IC50 [5, 6] was 95.5 nM, the ED50 (PDE10) was 6.4 mg/kg and the ED50 ([3]; read-out: APO ED50) was 1.2 mg/kg. It also gave an ED50 [4] of 2 mg/kg.

CO[C@@H](C)Cn1cc(-c2c(C)nc3c(N4CCOCC4)nccn23)cn1 [compound 57] was tested, and the ED50 [2] was 5 mg/kg, the “PDE10A2 pIC50” value [5, 7] was 7.22 and the ED50 (PDE10) was 8 mg/kg. The ED50 ([3]; read-out: APO ED50) was 1.2 mg/kg.

For COCCc1ncc(-c2c(C)nc3c(N4CCOCC4)nccn23)cn1 [compound 33, 3-[2-(2-Methoxy-ethyl)-pyrimidin-5-yl]-2-methyl-8-morpholin-4-yl-imidazo[1,2-a]pyrazine], the IC50 (PDE11A) was > 10 µM, the IC50 (PDE1B) was 2950 nM and the IC50 (PDE4D) was > 10 µM. The IC50 ([5]; Table 4a in vitro selectivity, read-out: IC50 PDE type 10A) was 500 nM, the IC50 [5, 6] was 148 nM and the IC50 (PDE5A) was > 10 µM. For the same compound, the ED50 ([3]; read-out: APO ED50) was 0.8 mg/kg, the IC50 (PDE7A) was > 10 µM and the IC50 (PDE9A; Table 4a in vitro selectivity, read-out: IC50 PDE type 9A) was > 10 µM. For the same compound, the IC50 (PDE2A; Table 4a in vitro selectivity, read-out: IC50 PDE type 2A) was > 10 µM and the IC50 (PDE3A) was > 10 µM.

With Cc1nc2c(N3CCOCC3)nccn2c1-c1cnn(CC2CC2(F)F)c1 (stereo not drawn) [compound 52] the IC50 [5, 6] was 52.5 nM, the ED50 (PDE10) was 5.5 mg/kg and the ED50 ([3]; read-out: APO ED50) was 3.1 mg/kg. The ED50 [4] was ≤ 10 mg/kg.

With COC(C)(C)Cn1cc(-c2c(C)nc3c(-c4ccncc4)nccn23)cn1 [compound 78] the IC50 [5, 6] was 105 nM, the “% Occ. at 10 mg/kg” value (PDE10) was 76% and the ED50 ([3]; read-out: APO ED50) was 1.2 mg/kg. For the same compound, the “Selectivity PDE9” value (PDE9A; in vitro selectivity towards PDE10A versus PDE9) was >10-100 fold, except 78 (<10 fold selectivity).

In the case of COCCn1cc(-c2c(C3CC3)nc3c(N4CCOCC4)nccn23)cn1 [compound 53], the “PDE10A2 pIC50” value [5, 7] is reported as 7.27, the ED50 ([3]; read-out: APO ED50) is reported as 5 mg/kg and the ED50 [4] is reported as ≤ 40 mg/kg.

For Cc1nc2c(-c3ccncc3)nccn2c1-c1cnn(CC(C)C)c1 [compound 69], the IC50 [5, 6] was 89.1 nM, the “% Occ. at 10 mg/kg” value (PDE10) was 67% and the ED50 ([3]; read-out: APO ED50) was 5 mg/kg. The ED50 [4] was 2 mg/kg.

For Cc1nc2c(N3CCOCC3)nccn2c1-c1cnn(CC(C)C)c1 [compound 97], the ED50 [2] was 12.3 mg/kg, the ED50 ([3]; read-out: APO ED50) was 2 mg/kg and the ED50 [4] was 5.4 mg/kg.

c1cn2c(-c3cnn(CC4CC4)c3)cnc2c(N2CCOCC2)n1 [compound 119] was tested, and the IC50 [5, 6] was 324 nM, the ED50 ([3]; not active at 2.5 or at 10 mg/kg, not further tested, read-out: APO ED50 (not active at threshold dose)) was > 2.5 mg/kg and the “Selectivity PDE2A” value (PDE2A; in vitro selectivity towards PDE10A versus PDE2A) was “≧10 fold, except compound 119 (>3.02 fold selectivity)”.
